The record followed here is ChEMBL document CHEMBL1131750, “A substrate combinatorial array for caspases” (Bioorg Med Chem Lett, 1999).

Holding throughout (assay type): ADME
Series [1] is described as follows: Kinetic Constant of Ac-YVAD-AMC for compound.
Series [2] in a line: Km value of Ac-YVAD-AMC substrate for compound.
Series [3] is described as follows: Kinetic Constant of Ac-WVAD-AMC for compound.
Series [4] can be described thus: Kinetic Constant of Ac-WEAD-AMC for compound.
Series [5] in a line: Vmax value of Ac-YVAD-AMC substrate for compound.

Molecules are shown by their SMILES. Peptide text beside a SMILES is read from it. * marks the point of attachment. AMC = Cc1cc(=O)oc2cc(N*)ccc12

With `CC(=O)NCC(=O)NCC(=O)N[C@@H](C)C(=O)N[C@@H](CC(=O)O)C(=O)Nc1ccc2c(C)cc(=O)oc2c1` (Ac-GGAD-{AMC}), the figures for the “Vmax / Km” value in series [1], in series [3] and in series [4] were 53 FU min-1 uM-1, 48 FU min-1 uM-1 and 204 FU min-1 uM-1, respectively. The Km stood at 20 µM in series [2], 27 µM in series [3] and 9 µM in series [4]. In addition, the Vmax is 1300 FU uM-1 in series [3], 1840 FU uM-1 in series [4] and 1060 FU uM-1 in series [5].
